Earlier results, collected in article PMC11730002 (Turkish Journal of Pharmaceutical Sciences, 2025).

Assays:
pancreatic lipase = target: T1, pancreatic lipase (Sus scrofa, UniProt P00591); settings: read-out: Pancreatic lipase inhibition IC50; in vitro study
T1 sequence (P00591 1-450): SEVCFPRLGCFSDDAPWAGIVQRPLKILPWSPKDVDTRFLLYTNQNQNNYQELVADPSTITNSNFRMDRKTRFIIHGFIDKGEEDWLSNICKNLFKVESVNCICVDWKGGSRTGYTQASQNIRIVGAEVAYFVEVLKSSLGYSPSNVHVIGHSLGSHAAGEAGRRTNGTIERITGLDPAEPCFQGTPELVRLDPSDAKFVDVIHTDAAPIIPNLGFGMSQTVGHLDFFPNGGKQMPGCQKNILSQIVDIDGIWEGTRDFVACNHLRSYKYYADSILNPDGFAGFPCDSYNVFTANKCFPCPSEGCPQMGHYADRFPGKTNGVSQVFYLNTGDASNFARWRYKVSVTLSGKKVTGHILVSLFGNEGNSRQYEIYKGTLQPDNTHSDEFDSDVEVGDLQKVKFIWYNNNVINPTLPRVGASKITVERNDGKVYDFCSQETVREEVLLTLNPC

lipase = settings: read-out: Lipase inhibitory activity IC50

IC50 (pancreatic lipase): 347 µM | IC50 (lipase): 62.8 ± 2.7 µM
SMILES: O=C(/C=C/c1ccc(O)c(O)c1)O[C@H](Cc1ccc(O)c(O)c1)C(=O)O [Rosmarinic acid]
